In patent US20130217721A1, “COMPOSITIONS AND METHODS FOR DETECTION AND TREATMENT OF B-RAF INHIBITOR-RESISTANT MELANOMAS” (The Regents of the University of California, priority 2010, published 2013):

B1: FLAG-tagged p61 BRAF(V600E/R509H) (enzyme, human, UniProt P15056 1-766, looked up)
chain: MAALSGGGGGGAEPGQALFNGDMEPEAGAGAGAAASSAADPAIPEEVWNIKQMIKLTQEHIEALLDKFGGEHNPPSIYLEAYEEYTSKLDALQQREQQLLESLGNGTDFSVSSSASMDTVTSSSSSSLSVLPSSLSVFQNPTDVARSNPKSPQKPIVRVFLPNKQRTVDLIRDQGFRGDGGSTTGLSATPPASLPGSLTNVKALQKSPGPQRERKSSSSSEDRNRMKTLGRRDSSDDWEIPDGQITVGQRIGSGSFGTVYKGKWHGDVAVKMLNVTAPTPQQLQAFKNEVGVLRKTHHVNILLFMGYSTKPQLAIVTQWCEGSSLYHHLHIIETKFEMIKLIDIARQTAQGMDYLHAKSIIHRDLKSNNIFLHEDLTVKIGDFGLATEKSRWSGSHQFEQLSGSILWMAPEVIRMQDKNPYSFQSDVYAFGIVLYELMTGQLPYSNINNRDQIIFMVGRGYLSPDLSKVRSNCPKAMKRLMAECLKKKRDERPLFPQILASIELLARSLPKIHRSASEPSLNRAGFQTEDFSLYACASPKTPIQAGGYGAFPVH
notes: domain: splice variant lacking exons 4-8 (554 amino acids); Expressed in 293H cells; immunoprecipitated with FLAG antibody; also called dimerization-deficient mutant; not shown: FLAG tag

Columns and labels:
[1] = tested on: M229 R sub-lines (M229 R5); assay: Cell survival / proliferation assay (72 h); format: cell-based, human; details: M229 R5, 72 h, PLX4032-resistant cells grown with PLX4032
Protocol: (§1) Cells were maintained in Dulbecco's modified Eagle medium (DMEM) with 10 or 20% fetal bovine serum and glutamine. shRNAs were sub-cloned into the lentiviral vector pLL3.7 and infections carried out with protamine sulphate. Stocks of PLX4032 (Plexxikon) and AZD6244 (commercially available) were made in DMSO. Cells were quantified using CellTiter-GLO Luminescence (Promega).
(§2) Cell proliferation experiments were performed in a 96-well format (five replicates), and baseline quantification performed at 24 h after cell seeding along with initiation of drug treatments (72 h). Stocks and dilutions of PLX4032 (Plexxikon), AZD6244 (Selleck Chemicals) and U0126 (Promega) were made in DMSO. siRNA pool (Dharmacon) transfections were carried out in 384-well format. TransIT transfection reagent (Mirus) was added to each well and incubated at 37° C. for 20 min. Subsequently, cells were reverse transfected, and the mixture was incubated for 51-61 h at 37° C. Cells were quantified using CellTiter 96 Aqueous One Solution (Promega) or CellTiter-GLO Luminescence (Promega) following the manufacturer's recommendations.

[2] = tested on: Pt55 R short-term culture; assay: Cell survival / proliferation assay (72 h); format: cell-based, human; details: for growth sensitivity to MEK inhibition: 72 h, in the presence or absence of PLX4032
Protocol: as §1, §2

[3] = tested on: Pt48 R short-term culture; assay: Cell survival / proliferation assay (72 h); format: cell-based, human; details: for growth sensitivity to inhibitor: 72 h, PLX4032-resistant cells grown with PLX4032
Protocol: as §1, §2

[4] = tested on: M238 R sub-lines (M238 R1); assay: Cell survival / proliferation assay (72 h); format: cell-based, human; details: M238 R1, 72 h, PLX4032-resistant cells grown with PLX4032
Protocol: as §1, §2

[5] = tested on: M249 R sub-line (M249 R4); assay: Cell survival / proliferation assay (72 h); format: cell-based, human; details: for growth sensitivity to MEK inhibition: M249 R4, 72 h, in the presence or absence of PLX4032
Protocol: as §1, §2
(§3) Cell culture, infections and drug treatments. Cells were maintained in DMEM with 10 or 20% fetal bovine serum and glutamine. shRNAs for B-RAF and C-RAF were sub-cloned into the lentiviral vector pLL3.7; pBabe B-RAF (V600E) was purchase (plasmid 17544, Addgene); viral supernatants generated by co-transfection with three packaging plasm ids into HEK293T cells; and infections carried out with protamine sulfate. Stocks and dilutions of PLX4032 (Plexxikon, Berkeley, Calif.) and AZD6244 (commercially available) were made in DMSO. Cells were quantified using CellTiter-GLO Luminescence (Promega) or crystal violet staining followed by NIH Image J quantification.

M395 R = assay: Cell survival assay (72 h); format: cell-based, human; details: M395 R (V600EB-RAF amplification-driven), 72 h
From the text: as §3

[6] = tested on: SKMEL-239 PLX4032-resistant clones C1-5; assay: Proliferation assay of PLX4032-resistant clones; format: cell-based, human; details: all five resistant clones, albeit at slightly higher doses
Protocol: Cell proliferation and cell cycle analysis. All melanoma cell lines were generated by A. Houghton (MSKCC) or obtained from ATCC. 293H cells were obtained from Invitrogen. Cells were maintained in DMEM (293H and MEFs), or RPMI (all other cell lines) supplemented with 2 mM glutamine, antibiotics and 10% fetal bovine serum. We confirmed by DNA fingerprinting^20 that all PLX4032-resistant, SKMEL-239 clones were derived from the same patient, thus excluding the possibility of contamination (Table 6). For proliferation assays, cells were plated in 6 well plates and 24 hours later were treated with varying concentrations of inhibitors as indicated. IC50 values were calculated using Graph Pad Prism v.5. For cell cycle and apoptosis studies, cells were seeded in 6 well dishes the day prior to drug treatment. For analysis, both adherent and floating cells were harvested and stained with ethidium bromide as described previously^21.

[7] = biological target: T1, V5-tagged p61 BRAF(V600E/R509H) (human, UniProt P15056 1-766); assay: co-immunoprecipitation of FLAG- and V5-tagged forms from 293H cells
T1 construct: domain: splice variant lacking exons 4-8 (554 amino acids); Co-expressed with the FLAG-tagged form in 293H cells; also called dimerization mutant p61 BRAF(V600E/R509H); not shown: V5 tag

Molecule | growth sensitivity to inhibitor [1] | growth sensitivity to MEK inhibition [2] | growth sensitivity to inhibitor [3] | growth sensitivity to inhibitor [4] | growth sensitivity to MEK inhibition [5] | further results
N#CC(=C(/N)Sc1ccccc1N)/C(C#N)=C(\N)Sc1ccccc1N [U0126] | highly resistant | sensitive | highly resistant | highly resistant | sensitive | –
Cn1cnc2c(F)c(Nc3ccc(Br)cc3Cl)c(C(=O)NOCCO)cc21 [AZD6244] | highly resistant | sensitive | highly resistant | highly resistant | sensitive | proliferation under MEKi treatment ([5]; M249 R4 (Q61KN-RAS-driven), 72 h): decreased proliferation; proliferation under MEKi treatment (M395 R): decreased proliferation
O=C(NOC[C@H](O)CO)c1ccc(F)c(F)c1Nc1ccc(I)cc1F [PD0325901] | – | – | – | – | – | sensitivity to the MEK inhibitor [6]: retained sensitivity
CCCS(=O)(=O)Nc1ccc(F)c(C(=O)c2c[nH]c3ncc(Cl)cc23)c1F [PLX4720] | – | – | – | – | – | growth resistance to B-RAF inhibitor [2]: resistance; growth resistance to B-RAF inhibitor [3]: resistance
B1 | – | – | – | – | – | binding result [7]: no binding
